PubChem BioAssay AID1963842 (Molecular Pharmacology Branch, DTP, NCI, 2024)
pIC50: −log10 of the molar value.

Tested on: 677734-321-R-J1-PDC complex spheroid viability
Test: Anticancer human tumor 677734-321-R-J1-PDC patient-derived soft tissue sarcoma cell line growth inhibition [POLQ]
Conditions: for pIC50: curve of first compound; for viability, T/C: stronger effect = lower value
Experimental: Multicellular complex tumor spheroid response to Polymerase (POL) inhibitors (novobiocin, ART-558, RP6685) in combination with a variety of drugs and investigational agents in selected tumor cell lines
The POL inhibitors (novobiocin, ART-558, and RP6685) were evaluated both individually and in combination with standard of care and investigational anticancer small molecules within a complex spheroid model of solid tumors. . Complex spheroids include a stromal component modeled by human endothelial cells (HUVEC) and fibroblasts modeled by human mesenchymal stem cells (MSCs). The concentration ranges selected for each drug and investigational agent were based upon clinically achievable concentrations if the clinical Cmax of the agent was known.
Compounds. The drugs and investigational agents: novobiocin (NSC847541), ART-558 (NSC835418), RP-6685 (NSC848927), peposertib (NSC802822), ceralasertib (NSC780249), elimusertib (NSC800525), camonsertib (NSC841442), AZD-1390 (NSC803789), olaparib (NSC753686), talazoparib (NSC767125), rucaparib (NSC756644), sotorasib (NSC818433), MRTX-1133 (NSC836407), SN-38 (NSC673596), topotecan (NSC609699), epotoside (NSC141540), doxorubicin (NSC123127), gemcitabine (NSC613327), 5-fluorouracil (NSC19893), paclitaxel (NSC125973), vemurafenib (NSC761431), MSA-2 (NSC828583), SN-011 (NSC837082), adavosertib (NSC754352), prexasertib (NSC758257), carboplatin (NSC241240) and oxaliplatin (NSC266046), were obtained from the National Cancer Institute (NCI) Developmental Therapeutics Program Chemical Repository (21). The FDA-approved anticancer drug set is available from the Developmental Therapeutics Program at https://dtp.cancer.gov/organization/dscb/obtaining/. […] The stock solutions were prepared in dimethyl sulfoxide (DMSO, Sigma-Aldrich, St. Louis, MO, cat. D2650), except for the platinum compounds which were prepared in saline (Quality Biological, Gaithersburg, MD, cat. 114-055-101), at 800-fold the tested concentration and stored at -70 degrees C prior to their use. All drugs and investigational agents were tested over a range starting from a high concentration at or near the clinical Cmax and decreasing in half-log increments. If the clinical Cmax for an agent had not been determined, the highest concentration tested was 10 microM, except for SN-38, which was tested at a high concentration of 1 microM.
Cell Culture. All cells were maintained in an incubator at 37 degrees C and 5% CO2 with 95% humidity. The PDC lines were cultured according to standard operating procedures established by the NCI PDMR (https://pdmr.cancer.gov). Table 3 of the manuscript, lists the cell lines along with the number of the three cell types plated to form the mct-spheroids and media for tumor cell growth. After thawing, all PDC lines, except 997537-175-T-J1-PDC and 415267-285-R-J2-PDC, were cultured in Matrigel-coated flasks prepared with a working solution of 1X Ham's F-12 nutrient mix, without supplementation (Thermo Fisher Scientific, cat. 11765054), 100 U/mL penicillin-streptomycin (Thermo Fisher Scientific, cat. 15140122), and 2.5% Matrigel (Corning Inc., Corning, NY, cat. 354248) for the first three passages. The two PDC lines 997537-175-T-J1-PDC and 415267-285-R-J2-PDC were cultured on uncoated flasks. The 857933-349-R-J2-PDC line was cultured in 6C/Colon 1B media containing advanced DMEM/F-12 (Thermo Fisher Scientific, cat. 12634028), 10 mM HEPES (Thermo Fisher Scientific, cat. 15630080), 1X GlutaMAX supplement (Thermo Fisher Scientific, cat. 35050061), 0.1 mg/mL primocin (InvivoGen, San Diego, CA, cat. ant-pm-2), 10% defined fetal bovine serum, heat inactivated (HyClone Laboratories Inc., Logan, UT, cat. SH30070.03HI), 50% L-WRN conditioned media (ATCC, cat. CRL-3276), 1.25 mM N-Acetyl-L-cysteine (Sigma-Aldrich, cat. A9165), 10 mM nicotinamide (Sigma-Aldrich, cat. N0636), 1X B-27 supplement (Thermo Fisher Scientific, cat. 17504044), 1X N-2 supplement (Thermo Fisher Scientific, cat. […]
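Also: spheroids exposed to compounds for one week.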
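For viability, T/C in this document: 100% = vehicle DMSO treated spheroids.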

## C=CCn1c(=O)c2cnc(Nc3ccc(N4CCN(C)CC4)cc3)nc2n1-c1cccc(C(C)(C)O)n1 + Cc1cccc(N(C)C(=O)C2C(O)CCN2c2nc(C)cc(C(F)(F)F)c2C#N)c1
Second compound 0.0316 µM
  pIC50: 6.20
Second compound 0.1 µM
  pIC50: 6.32
Second compound 0.316 µM
  pIC50: 6.18
Second compound 1 µM
  pIC50: 6.40
Second compound 3.16 µM
  pIC50: 6.27
Second compound 10 µM
  pIC50: 6.31
Second compound 0.0316 µM, first compound 0.00316 µM
  viability, T/C: 102%
Second compound 0.0316 µM, first compound 0.01 µM
  viability, T/C: 102%
Second compound 0.0316 µM, first compound 0.0316 µM
  viability, T/C: 102%
Second compound 0.0316 µM, first compound 0.1 µM
  viability, T/C: 90.6%
Second compound 0.0316 µM, first compound 0.316 µM
  viability, T/C: 81%
Second compound 0.0316 µM, first compound 1 µM
  viability, T/C: 29.7%
Second compound 0.1 µM, first compound 0.00316 µM
  viability, T/C: 88.6%
Second compound 0.1 µM, first compound 0.01 µM
  viability, T/C: 92.4%
Second compound 0.1 µM, first compound 0.0316 µM
  viability, T/C: 106%
Second compound 0.1 µM, first compound 0.1 µM
  viability, T/C: 78.4%
Second compound 0.1 µM, first compound 0.316 µM
  viability, T/C: 67.4%
Second compound 0.1 µM, first compound 1 µM
  viability, T/C: 21.7%
Second compound 0.316 µM, first compound 0.00316 µM
  viability, T/C: 96.7%
Second compound 0.316 µM, first compound 0.01 µM
  viability, T/C: 95.3%
Second compound 0.316 µM, first compound 0.0316 µM
  viability, T/C: 90.9%
Second compound 0.316 µM, first compound 0.1 µM
  viability, T/C: 85.6%
Second compound 0.316 µM, first compound 0.316 µM
  viability, T/C: 79%
Second compound 0.316 µM, first compound 1 µM
  viability, T/C: 34.4%
Second compound 1 µM, first compound 0.00316 µM
  viability, T/C: 117%
Second compound 1 µM, first compound 0.01 µM
  viability, T/C: 93.7%
Second compound 1 µM, first compound 0.0316 µM
  viability, T/C: 98.9%
Second compound 1 µM, first compound 0.1 µM
  viability, T/C: 85%
Second compound 1 µM, first compound 0.316 µM
  viability, T/C: 51.4%
Second compound 1 µM, first compound 1 µM
  viability, T/C: 30.2%
Second compound 3.16 µM, first compound 0.00316 µM
  viability, T/C: 107%
Second compound 3.16 µM, first compound 0.01 µM
  viability, T/C: 87.7%
Second compound 3.16 µM, first compound 0.0316 µM
  viability, T/C: 76.3%
Second compound 3.16 µM, first compound 0.1 µM
  viability, T/C: 87.8%
Second compound 3.16 µM, first compound 0.316 µM
  viability, T/C: 66.8%
Second compound 3.16 µM, first compound 1 µM
  viability, T/C: 31.9%
Second compound 10 µM, first compound 0.00316 µM
  viability, T/C: 89.6%
Second compound 10 µM, first compound 0.01 µM
  viability, T/C: 82.6%
Second compound 10 µM, first compound 0.0316 µM
  viability, T/C: 95.3%
Second compound 10 µM, first compound 0.1 µM
  viability, T/C: 82.3%
Second compound 10 µM, first compound 0.316 µM
  viability, T/C: 70%
Second compound 10 µM, first compound 1 µM
  viability, T/C: 18.6%
